Calls of active or inactive are those of the source. The calls are words filed in the database; no cut-off is given here.
Legend:
Lymphocyte [1] = assay: Induction of frataxin accumulation in human FRDA-patient isolated lymphocyte at 1 uM assessed as increase in frataxin levels measured after 4 days by Western blot analysis; type: functional, cell-based; details: time 4.0 day
Flp-In-293 [2] = assay: Induction of frataxin accumulation in human Flp-In-293 cells stably expressing frataxin at 10 uM assessed as increase in frataxin levels measured after 72 hrs by Western blot analysis; type: functional, cell-based
Flp-In-293 [3] = assay: Induction of frataxin accumulation in human Flp-In-293 cells stably expressing frataxin K147R mutant at 10 uM assessed as increase in frataxin levels measured after 24 hrs by Western blot analysis; type: functional, cell-based
[4] = molecular target: T1, Frataxin, mitochondrial (Homo sapiens) (UniProt Q16595); assay: Inhibition of recombinant frataxin (unknown origin) precursor degradation assessed as half-saturation binding constant (L1/2) and measured by fluorescence based assay
T1 sequence (whole entry): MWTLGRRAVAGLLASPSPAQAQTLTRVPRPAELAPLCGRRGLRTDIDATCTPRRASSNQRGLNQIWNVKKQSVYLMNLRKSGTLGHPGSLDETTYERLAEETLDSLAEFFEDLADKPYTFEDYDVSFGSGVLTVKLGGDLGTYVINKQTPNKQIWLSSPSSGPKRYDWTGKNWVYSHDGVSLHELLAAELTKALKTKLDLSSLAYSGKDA

Flp-In-293 [5] = assay: Induction of frataxin accumulation in human Flp-In-293 cells stably expressing frataxin at 10 uM assessed as increase in frataxin levels measured after 24 hrs by Western blot analysis; type: functional, cell-based
Lymphocyte [6] = assay: Induction of frataxin accumulation in human FRDA-patient isolated lymphocyte at 10 uM assessed as increase in frataxin levels measured by Western blot analysis; type: functional, cell-based
Lymphocyte [7] = assay: Rescue of aconitase activity in human FRDA-patient isolated lymphocyte at 10 uM […]; type: functional, cell-based
[8] = molecular target: T1, Frataxin, mitochondrial (Homo sapiens); assay: Inhibition of frataxin ubiquitination in human HEK293 cells transiently co-transfected with HA-Ub and frataxin at 10 uM and measured after 48 hrs by Western blot analysis; type: cell-based

SMILES	Activity (Lymphocyte [1])	Activity (Flp-In-293 [2])	Activity (Flp-In-293 [3])	K1/2 [4] [µM]	Activity (Flp-In-293 [5])	Activity (Lymphocyte [6])	Activity (Lymphocyte [7])	inhibition [8]
COc1ccccc1C(=O)N/N=C(\C)c1ccc2c(c1)Nc1ccccc1S2	Active							
C/C(=N\NC(=O)c1ccccc1)c1ccc2c(c1)Nc1ccccc1S2		Active	inactive	2.3	Active	Active	Active	
C/C(=N\NC(=O)c1ccc(C)cc1C)c1ccc2c(c1)Nc1ccccc1S2		Active	inactive	2.9	Active	Active		Active
C/C(=N\NC(=O)c1cc2ccccc2cc1O)c1ccc2c(c1)Nc1ccccc1S2			inactive		Active			Active
